{
  "source": "patent US20090105149A1",
  "about": "“Compounds comprising lpa” (ENKAM PHARMACEUTICALS A/S, priority 2003, published 2009)",
  "format_in_all_cases": "cell-based, rat",
  "key": {"[1]": {"system": "cerebellar granule neurons (CGN)", "assay": "Neurite outgrowth, cerebellar granule neurons", "conditions": "24 h", "description": "(§1) The cultures were subsequently immunostained for tyrosine hydroxylase. Hippocampal neurons and CGN were plated at a density of 10,000 cells/cm^2 on 8-well permanox chamber slides and incubated for 24 hours in the presence of various concentrations of FGLd. Subsequently the neurons were immunostained for GAP-43. Results from at least five independent experiments for each neuronal culture are shown as percentage ±SEM with the untreated controls set at 100%. *p<0.05, **p<0.01, ***p<0.001 when compared to the controls.\nPeptide solutions without or with inhibitors of various signal transduction pathways were added to a total volume of 300 μl/cm^2, and the slides were incubated at 37° C. After 24 hours, the neurons were fixed with 4% (v/v) formaldehyde for 20 minutes and thereafter immunostained using primary rabbit antibodies against GAP-43 and Alexa Fluor secondary goat anti-rabbit antibodies. Images of at least 200 neurons for each group in each individual experiment were obtained systematically by using computer assisted fluorescence microscopy as previously described (Rønn et al., 2000 op. cit.). Briefly, a Nikon Diaphot inverted microscope with a Nikon Plan 20× objective (Nikon, Tokyo, Japan) coupled to a video camera (Grundig Electronics, Germany) was used for recordings. The same software package as described above for the dopaminergic neurite outgrowth assay was used to process the recorded images."}, "[2]": {"system": "cerebellar granule neurons (CGN)", "assay": "TUNEL assay, DNA-fragmentation in KCl-deprived CGN", "conditions": "at 10-15 μg/ml; relative to apoptotic neurons without treatment", "description": "The number of neurons with fragmented DNA was measured using the Apo-Alert apoptosis detection kit and the fraction of TUNEL-positive neurons was estimated by counting. Results from at least four independent experiments are shown as percentage of cells showing DNA-fragmentation relative to the total number of cells ±SEM with control cultures in low KCl set at 100%. • (a) Effect of depriving CGN cultures of high KCl on number of cells undergoing apoptosis. • (b) Effect of FGLd in apoptosis-induced CGN cultures.\n24 hours after induction of apoptotic cell death, the cultures were fixed and the extent of DNA-fragmentation was measured using the ApoAlert apoptosis detection kit, essentially as described by the manufacturer. Briefly, blunt ends of double-stranded DNA molecules were enzymatically labelled with fluorescein-dUTP, and all the neurons were stained with propidium iodide at a concentration of 750 ng/ml. Images of at least 200 neurons from each group in each experiment were obtained using a BioRad Radiance laser scanning system 2000 coupled to a Nikon Eclipse TE 200 confocal microscope equipped with an oil immersion 60×1.4 NA objective (Nikon, Tokyo, Japan). The fraction of TUNEL-positive neurons was determined by counting."}, "Erk1/2": {"system": "Erk1/2", "assay": "PACE assay, phosphorylation of Erk1/2 in CGN", "description": "The total number of neurons was estimated using crystal violet staining. Results from at least three independent experiments are expressed as percentage ±SEM with untreated cultures set at 100%. *p<0.05 and **p<0.01 when compared to the controls.\nDetection of phosphorylated Erk1/2 and Akt relative to the total number of CGN is carried out according to Versteeg et al. (2000) FEBS Lett. 465:69-73. For the experiments CGN were plated at a density of 290,000 cells/cm^2 in poly-L-lysine coated 96-well microtiter plates. […] 24 hours after plating, Ara-C was added to the cultures as described above. After 72 hours of incubation, half of the medium was replaced with Neurobasal-A medium containing the peptide to be tested. For the Erk1/2 phosphorylation assay, the cultures were further incubated for 0-90 minutes, centrifuged at 70 g for 8 minutes, fixed with 4% (v/v) formaldehyde and immunostained using primary phospho-p42-44 rabbit antibodies and peroxidase-conjugated anti-rabbit secondary antibodies. For the detection of phosphorylated Akt, the cultures were further incubated for 10 or 30 minutes, centrifuged at 70 g for 8 minutes, fixed with 4% (v/v) formaldehyde and immunostained using polyclonal antibodies against Akt phosphorylated at Ser473 and peroxidase-conjugated secondary antibodies. […]"}, "dopaminergic neurons": {"system": "dopaminergic neurons", "assay": "Neurite outgrowth, dopaminergic neurons", "conditions": "72 h; for Effect on Neurite Length (Percent Increase vs. Control): DN E14", "description": "as §1\nAfter 72 hours of incubation, the neurons were fixed with 4% (v/v) formaldehyde and immunostained using a primary mouse monoclonal antibody against tyrosine hydroxylase and secondary biotinylated sheep anti-mouse antibodies followed by incubation with peroxidase conjugated streptavidin. 98 images for each experimental condition in each individual experiment were automatically recorded using a computerised microscope workstation described by Walmod et al. (2002) Toxicol Appl Pharmacol. 181:1-15. Briefly, the workstation consisted of an Eclipse TE 300 inverted microscope (Nikon, Tokyo, Japan) equipped with a motorised, movable microscope stage (LUDL Electronic Production Ltd, Hawthorne, N.Y., USA), a 10× objective and a 1100 analogue b/w CCD video camera (DFA, Denmark). A software package Prima developed at the Protein Laboratory (Copenhagen University, Denmark) was used to make a stereologically based determination of neurite length according to Rønn et al., (2000) J Neurosci Methods. 100:25-32)."}, "hippocampal neurons": {"system": "hippocampal neurons", "assay": "Synapse formation, synaptophysin/GAP-43 double-immunostaining", "description": "The effect of FGLd on synapse formation was further evaluated using double-immunostaining of neurites and synapses in primary embryonic (E19) hippocampal neurons grown in culture for 13 days. Cells were incubated with FGLd for 48 or 96 hours, before fixation and immunostaining. The synapses were detected by antibodies against synaptophysin and the neyrites were labelled by antibodies against the growth-associated protein-43 (GAP-43—also called B-50 or F1). The immunostaining was visualised and quantified by confocal fluorescence microscopy as described by Rønn et al. (2000) (op. cit.)."}},
  "note": "Marks after values point to notes of the source that are not given here.",
  "data": [
    {"substance": "FGLd: MAP-type dendrimer of FGL; dendrimeric tetramer of the FGL peptide (EVYVVAENQQGKSKA)", "values": [
      {"measurement": "Effect on Neurite Length (Percent Increase vs. Control)", "setting": "[1]; CGN PND 2-4, 9 μg/mL", "result": 24, "unit": "%**"},
      {"measurement": "Effect on Neurite Length (Percent Increase vs. Control)", "setting": "[1]; CGN PND 5-8, 3 μg/mL", "result": 30, "unit": "%"},
      {"measurement": "Effect on Neurite Length (Percent Increase vs. Control)", "setting": "[1]; CGN PND 5-8, 9 μg/mL", "result": 93, "unit": "%"},
      {"measurement": "Effect on Neurite Length (Percent Increase vs. Control)", "setting": "[1]; CGN PND 5-8, 10 μg/mL", "result": 37, "unit": "%"},
      {"measurement": "Effect on Neurite Length (Percent Increase vs. Control)", "setting": "[1]; CGN PND 5-8, 25 μg/mL", "result": 79, "unit": "%"},
      {"measurement": "Effect on Neurite Length (Percent Increase vs. Control)", "setting": "[1]; CGN PND 5-8, 27 μg/mL", "result": 121, "unit": "%"},
      {"measurement": "Effect on Neurite Length (Percent Increase vs. Control)", "setting": "[1]; CGN PND 5-8, 50 μg/mL", "result": 179, "unit": "%"},
      {"measurement": "Effect on Neurite Length (Percent Increase vs. Control)", "setting": "[1]; CGN PND 5-8, 100 μg/mL", "result": 96, "unit": "%"},
      {"measurement": "maximal stimulation of neurite outgrowth, CGN", "setting": "[1]; at 50 μg/ml, untreated control = 100%", "result": 255, "unit": "%"},
      {"measurement": "reduction of number of apoptotic CGN (DNA-fragmentation), maximal rescue", "setting": "[2]", "result": 40, "unit": "%"},
      {"measurement": "phosphorylation of Erk1/2", "setting": "Erk1/2; 5 μg/ml", "result": "unable to induce phosphorylation of Erk1/2"},
      {"measurement": "phosphorylation of Erk1/2", "setting": "Erk1/2; 10 μg/ml, from 10 to at least 90 minutes, control cultures = 100%", "result": "115-120%"},
      {"measurement": "Effect on Neurite Length (Percent Increase vs. Control)", "setting": "dopaminergic neurons; 0.04 μg/mL", "result": 12, "unit": "%"},
      {"measurement": "Effect on Neurite Length (Percent Increase vs. Control)", "setting": "dopaminergic neurons; 0.2 μg/mL", "result": 23, "unit": "%"},
      {"measurement": "Effect on Neurite Length (Percent Increase vs. Control)", "setting": "dopaminergic neurons; 1 μg/mL", "result": 24, "unit": "%"},
      {"measurement": "Effect on Neurite Length (Percent Increase vs. Control)", "setting": "dopaminergic neurons; 5 μg/mL", "result": 13, "unit": "%"},
      {"measurement": "maximal average neurite length, dopaminergic neurons", "setting": "dopaminergic neurons; at 1 μg/ml, untreated control = 100%", "result": 125, "unit": "%"},
      {"measurement": "increase in the number of synaptophysin positive spots per 100 μm length of neurite", "setting": "hippocampal neurons; 20 μg/ml for 48 and 96 hours", "result": "approximately 20%"},
      {"measurement": "number of synaptophysin positive spots per 100 μm length of neurite", "setting": "hippocampal neurons; 20 μg/ml for 48 hours, control 2.40", "result": 2.96},
      {"measurement": "number of synaptophysin positive spots per 100 μm length of neurite", "setting": "hippocampal neurons; 20 μg/ml for 96 hours, control 2.73", "result": 3.24}
    ]}
  ]
}
